Experimental data: patent publication US9862711B2, “Pyrazine derivatives as phosphatidylinositol 3-kinase inhibitors” (NOVARTIS AG, priority 2014, dated 2018)

Tests used:
Assay type in all cases: cell-based
[1] = tested on: IL-8-induced neutrophil shape change in human whole blood; assay: Whole blood neutrophil shape change assay (Assay L); details: 2 nM IL-8, neutrophil shape change by flow cytometry, read-out: Assay L WBSC IC50
Method: Whole Blood Neutrophil Shape Change Assay (L)
A flow cytometry based method used to measure the inhibition of IL-8 (interleukin-8)-induced neutrophil shape change in human whole blood.
IL-8 was made up to 2 μM stocks in 0.1% bovine serum albumin/PBS and stored at −80° C. On the day IL-8 was diluted in PBS (phosphate buffered saline) 10 minutes before use. IL-8 was used at final concentration of 2 nM and a concentration range from […] to 200 nM for the donor dose response curve.
Assay fixative solution was prepared fresh each day from 10× concentrated CellFIX™ solution diluted 1:10 in sterile distilled water and then 1:4 with PBS. Assay fixative solution was kept on ice prior to use.
A 10× lysis buffer was prepared in advance by dissolving 20.75 g […] and 2.5 g KHCO3 in 250 ml sterile H2O. This 10× lysis buffer was filtered under sterile conditions and stored for up to two weeks at 4° C. On the day a 1× lysis solution was prepared with sterile distilled H2O and kept on ice prior to use.
The test compounds were prepared as 10 mM stock solutions in 100% DMSO and were stored at 4° C. Once in use for an assay 10 mM stock compounds were thawed and stored at RT protected from light. Compound dilutions were prepared fresh on the day. The first series of dilutions in 100% DMSO were done first thing in the morning. Only once blood had been collected and arrived in laboratory was the next set of dilutions into PBS carried out (1:10 PBS, 10% DMSO). This limited the exposure of diluted compound to plastic and made sure the exposure timing was consistent between assays. Compounds were added to the deep 96 well plates at 10× the final desired concentration (with addition of blood final [DMSO]=1%).
Table 3 illustrates the compound dilution series used in human whole blood neutrophil shape change assay.
On the day of running the assay, assay fixative buffer and 1× lysis solutions were prepared and stored on ice. Compound dilutions in 100% DMSO were prepared as described previously. Human whole blood was collected in K2 EDTA Vacutainers. Once blood was in the laboratory, compound dilutions into PBS were carried out as described previously and depicted in Table 1. 10 μl of 10× final compound concentration was added to appropriate wells of a deep 96-well plate except controls where 10 μl of 10% DMSO was added in place of compound, as outlined in the dilution series in Table 1. The outer wells of the deep well assay plate were filled with 1200 μl of sterile distilled H2O in an effort to limit edge effects (rows A1-H1, A1-A12, A12-H12). An IL-8 dose response was determined for each blood donor examined, to monitor the donor response to IL-8. At this step in assay preparation for the IL-8 dose response samples 10 μl of PBS was added to designated wells. In addition the assay window without DMSO was also assessed each day. For such samples at this step in assay preparation 10 μl of PBS was added in the place of 10% DMSO.
80 μl of whole blood was added to compound/10% DMSO/PBS and mixed once gently upon addition. Lids were placed on the 96 well plates and samples were incubated for 15 minutes at 37° C. in a water-bath.
Following the compound pre-incubation 10× final IL-8 was added to appropriate wells (10 μl of 20 nM working stock IL-8, final IL-8 concentration in blood=2 nM) and 10 μl of PBS was added to the un-stimulated controls. 10× final dose response range IL-8 was also added to designated wells (final concentration range on assay plate was 200 nM to 0.0005 nM, 1:5 serial dilution in PBS). The IL-8 and PBS were added to appropriate wells across all assay plates in the same sequence as the blood to compound addition. Once added to all assay plates, samples were mixed quickly once to ensure even distribution of IL-8. Samples were incubated for 5 minutes at 37° C. in a water-bath. Following the incubation sample plates were transferred to ice where 250 μl of chilled Assay Fixative Buffer was added promptly to all wells. […]

[2] = target: PI 3-kinase beta (Homo sapiens (Human), UniProt P42338); assay: Cellular p-Akt (S473) SureFire assay, Rat-1_PI3Kbeta cells (Assay I); details: p-AKT (Ser473) in Rat-1 cells expressing myr-HA-hp110 beta, 1 h compound; read-out: Assay I PI3Kβ IC50
Text: (§1) Cellular Assays for PI 3-Kinase Alpha (H), Beta (I) and Delta (J)
(§2) AlphaScreen (Amplified Luminescent Proximity Homogeneous Assay, ALPHA, Perkin Elmer) is a non-radioactive bead-based proximity assay technology to study biomolecular interactions in a homogenous microtiter plate format. The brand name SureFire denotes AlphaScreen assays that are adapted to quantify the phosphorylation of endogenous cellular proteins in cell lysates, by using matched antibody pairs, which consist of an anti-phospho-kinase and an anti-kinase antibody. The assay allows characterization of kinase signaling in cells as well as measurement of kinase inhibitor effects.
(§3) Rat-1 cell lines stably overexpressing activated PI 3-kinase class I isoforms Rat-1 pBABEpuro Myr-HA-hp110 delta clone 5 (Rat-1_PI3Kdelta) and Rat-1 pBABEpuro Myr-HA-hp110 alpha clone 6 (Rat-1_PI3Kalpha) and Rat-1 pBABEpuro Myr-HA-hp110 beta (Rat-1_PI3beta) were cultivated in complete growth medium (DMEM high glucose, 10% (v/v) fetal bovine serum, 1% (v/v) MEM NEAA, 10 mM HEPES, 2 mM L-glutamine, puromycin (10 μg/mL for Rat-1_PI3Kdelta and Rat-1_PI3Kalpha, 4 ug/mL for Rat-1_PI3beta), 1% (v/v) Pen/Strep) to 90% confluency at 37° C./5% CO2/90% humidity in a humidified CO2 incubator and were split twice a week. The following materials were used for p-AKT(5473) detection in Rat-1 cell lysates: Dulbecco's modified Eagle's medium (DMEM) high glucose (Gibco Invitrogen, Basel, Switzerland, Cat. No. 41965), heat inactivated fetal bovine serum, qualified (HI FBS; Gibco Invitrogen, Basel, Switzerland, Lot. No. 16140), MEM non essential amino acids (NEAA; Gibco Invitrogen, Basel, Switzerland, Cat. No. 11140), HEPES (Gibco Invitrogen, Basel, Switzerland, Cat. No. 15630), penicillin/streptomycin (Pen/Strep, 100×; Gibco Invitrogen, Basel, Switzerland, Cat. No. 15140-122), L-glutamine (Gibco Invitrogen, Basel, Switzerland, Cat. No. 25030), puromycin (Sigma Aldrich, Buchs, Switzerland, Cat. No. P9620), DMSO (MERCK, Dietikon, Switzerland, Cat. No. 8.02912.2500), H2O, MilliQ-H2O unless otherwise stated (MILLIPORE QGARDOOR1, Millipore, Zug, Switzerland), bovine serum albumine (BSA; Sigma Aldrich, Buchs, Switzerland Cat. No. A8412), SureFire p-Akt 1/2 (Ser473) Assay Kit (Perkin Elmer, Schwerzenbach, Switzerland, Cat. No. TGRAS50K).
(§4) The p-Akt (S473) SureFire assay measures the phosphorylation of endogenous cellular Akt 1/2 at Ser473 in cell lysates. Using Rat-1 cells stably expressing myr-HA-tagged versions of the human PI3Kdelta, PI3Kalpha, or PI3Kbeta p110 catalytic subunit isoforms, the assay was developed as a two-plate protocol in a 384-well format.
(§5) For compound testing, the cells were seeded at a density of 4000 (Rat-1_PI3Kdelta), 7500 (Rat-1_PI3Kalpha), or 6200 (Rat-1_PI3Kbeta) cells in 20 μl complete growth medium into cell culture treated 384-well plates and were grown at 37° C./5% CO2/90% humidity for 24 h. Shortly before compound transfer, the complete medium was removed, 30 μl assay buffer (DMEM high glucose, 1×MEM NEAA, 10 mM HEPES, 2 mM L-glutamine, 0.1% (w/v) BSA) was added and 10 μl of the compound predilutions were transferred to the cells. After treatment with compound for 1 h, the cells were lysed by the addition of 20 μl lysis buffer supplemented with 0.24% (w/v) BSA. Detection of p-AKT (Ser473) was performed with the SureFire p-Akt 1/2 (Ser473) Assay Kit according to the manufacturer's instructions using 5 ul of cell lysate in a total detection volume of 12 μl.
(§6) IC50 values of the percentage inhibition of each compound at 8 concentrations (usually 10, 3.0, 1.0, 0.3, 0.1, 0.030, 0.010 and 0.003 μM) n=2 were derived by fitting a sigmoidal dose-response curve to a plot of assay readout over inhibitor concentration as described. All fits were performed with the program XLfit4 (ID Business Solutions, Guildford, UK).

[3] = target: PI 3-kinase delta (Homo sapiens (Human), UniProt O00329); assay: Cellular p-Akt (S473) SureFire assay, Rat-1_PI3Kdelta cells (Assay J); details: p-AKT (Ser473) in Rat-1 cells expressing myr-HA-hp110 delta, 1 h compound; read-out: Assay J PI3Kδ IC50
Text: as §1, §2, §3, §4, §5, §6

[4] = target: PI 3-kinase alpha (Homo sapiens (Human), UniProt P42336); assay: Cellular p-Akt (S473) SureFire assay, Rat-1_PI3Kalpha cells (Assay H); details: p-AKT (Ser473) in Rat-1 cells expressing myr-HA-hp110 alpha, 1 h compound; read-out: Assay H PI3Kα IC50
Text: as §1, §2, §3, §4, §5, §6

PI 3-kinase beta, sequence (P42338 whole entry): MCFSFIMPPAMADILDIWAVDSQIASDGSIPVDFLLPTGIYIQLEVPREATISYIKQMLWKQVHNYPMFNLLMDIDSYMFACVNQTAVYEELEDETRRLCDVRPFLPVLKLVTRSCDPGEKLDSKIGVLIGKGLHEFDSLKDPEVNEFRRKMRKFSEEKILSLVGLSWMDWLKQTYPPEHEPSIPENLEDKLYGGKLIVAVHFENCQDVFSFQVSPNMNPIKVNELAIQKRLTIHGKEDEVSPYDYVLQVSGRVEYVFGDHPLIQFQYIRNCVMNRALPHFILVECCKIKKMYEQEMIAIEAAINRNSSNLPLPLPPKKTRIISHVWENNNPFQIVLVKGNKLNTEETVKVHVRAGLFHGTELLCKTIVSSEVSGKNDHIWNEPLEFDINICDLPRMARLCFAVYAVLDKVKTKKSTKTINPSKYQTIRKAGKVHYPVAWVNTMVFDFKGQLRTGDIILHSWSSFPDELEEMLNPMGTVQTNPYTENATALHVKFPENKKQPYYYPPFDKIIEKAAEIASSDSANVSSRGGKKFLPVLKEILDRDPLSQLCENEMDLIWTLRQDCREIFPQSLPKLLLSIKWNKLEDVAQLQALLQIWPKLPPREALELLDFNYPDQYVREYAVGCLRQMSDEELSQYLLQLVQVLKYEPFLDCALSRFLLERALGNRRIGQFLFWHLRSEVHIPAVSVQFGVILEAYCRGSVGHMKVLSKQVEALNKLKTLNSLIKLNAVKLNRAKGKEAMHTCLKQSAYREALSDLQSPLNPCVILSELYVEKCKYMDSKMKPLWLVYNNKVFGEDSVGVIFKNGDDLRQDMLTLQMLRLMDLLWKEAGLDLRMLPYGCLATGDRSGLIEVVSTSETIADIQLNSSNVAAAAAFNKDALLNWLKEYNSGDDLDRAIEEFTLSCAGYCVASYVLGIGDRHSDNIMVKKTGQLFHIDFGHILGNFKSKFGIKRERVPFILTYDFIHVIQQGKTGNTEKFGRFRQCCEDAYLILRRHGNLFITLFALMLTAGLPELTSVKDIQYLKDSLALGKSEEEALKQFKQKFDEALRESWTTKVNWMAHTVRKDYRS
PI 3-kinase beta, sequence (Q63787 whole entry partner): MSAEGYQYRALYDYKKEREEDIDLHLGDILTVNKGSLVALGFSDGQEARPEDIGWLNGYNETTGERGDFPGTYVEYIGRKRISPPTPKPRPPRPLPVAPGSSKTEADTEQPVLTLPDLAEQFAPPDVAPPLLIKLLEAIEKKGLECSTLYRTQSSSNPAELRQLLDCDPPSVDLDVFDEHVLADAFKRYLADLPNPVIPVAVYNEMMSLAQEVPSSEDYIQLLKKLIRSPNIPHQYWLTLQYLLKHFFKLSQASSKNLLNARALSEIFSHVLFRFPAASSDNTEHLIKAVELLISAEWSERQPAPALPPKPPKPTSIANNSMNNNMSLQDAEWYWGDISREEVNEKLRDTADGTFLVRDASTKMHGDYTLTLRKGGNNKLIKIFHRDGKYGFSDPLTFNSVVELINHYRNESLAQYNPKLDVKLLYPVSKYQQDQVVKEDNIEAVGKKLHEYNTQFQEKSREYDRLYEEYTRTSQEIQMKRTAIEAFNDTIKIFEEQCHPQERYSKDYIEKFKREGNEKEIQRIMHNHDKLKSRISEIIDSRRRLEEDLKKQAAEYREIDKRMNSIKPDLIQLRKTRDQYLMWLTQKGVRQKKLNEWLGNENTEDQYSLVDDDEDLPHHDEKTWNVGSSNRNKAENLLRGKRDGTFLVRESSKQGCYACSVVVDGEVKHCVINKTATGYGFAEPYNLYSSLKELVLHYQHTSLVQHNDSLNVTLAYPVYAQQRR
PI 3-kinase delta, sequence (O00329 whole entry): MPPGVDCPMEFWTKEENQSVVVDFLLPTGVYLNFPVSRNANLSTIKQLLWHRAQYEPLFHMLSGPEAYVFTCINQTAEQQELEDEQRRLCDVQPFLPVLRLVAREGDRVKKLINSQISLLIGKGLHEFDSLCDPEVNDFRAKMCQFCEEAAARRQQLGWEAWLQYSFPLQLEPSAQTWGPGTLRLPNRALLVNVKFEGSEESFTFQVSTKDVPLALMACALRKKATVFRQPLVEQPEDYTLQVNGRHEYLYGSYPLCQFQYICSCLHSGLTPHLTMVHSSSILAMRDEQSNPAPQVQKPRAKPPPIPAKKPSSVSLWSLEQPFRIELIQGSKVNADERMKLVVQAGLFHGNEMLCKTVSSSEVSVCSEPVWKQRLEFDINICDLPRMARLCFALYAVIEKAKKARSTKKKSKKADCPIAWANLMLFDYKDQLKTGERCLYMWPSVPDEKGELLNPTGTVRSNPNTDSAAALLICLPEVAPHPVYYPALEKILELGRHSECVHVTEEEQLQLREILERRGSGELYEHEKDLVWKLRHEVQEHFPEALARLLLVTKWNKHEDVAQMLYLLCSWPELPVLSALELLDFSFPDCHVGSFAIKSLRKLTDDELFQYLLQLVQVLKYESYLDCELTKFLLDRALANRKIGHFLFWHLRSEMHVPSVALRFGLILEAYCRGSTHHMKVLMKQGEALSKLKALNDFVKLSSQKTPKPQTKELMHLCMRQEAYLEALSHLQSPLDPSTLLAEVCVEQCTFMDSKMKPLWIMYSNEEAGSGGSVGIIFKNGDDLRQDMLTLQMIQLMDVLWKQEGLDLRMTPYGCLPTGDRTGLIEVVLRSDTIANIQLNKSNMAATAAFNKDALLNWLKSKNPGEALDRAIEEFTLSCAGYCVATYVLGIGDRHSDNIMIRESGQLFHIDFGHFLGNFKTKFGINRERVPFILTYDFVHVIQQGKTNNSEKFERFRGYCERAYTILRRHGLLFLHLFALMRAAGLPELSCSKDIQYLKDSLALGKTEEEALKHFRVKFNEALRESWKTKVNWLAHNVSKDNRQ
PI 3-kinase delta, sequence (Q63787 whole entry partner): as the sequence (Q63787 whole entry partner) above
PI 3-kinase alpha, sequence (P42336 whole entry): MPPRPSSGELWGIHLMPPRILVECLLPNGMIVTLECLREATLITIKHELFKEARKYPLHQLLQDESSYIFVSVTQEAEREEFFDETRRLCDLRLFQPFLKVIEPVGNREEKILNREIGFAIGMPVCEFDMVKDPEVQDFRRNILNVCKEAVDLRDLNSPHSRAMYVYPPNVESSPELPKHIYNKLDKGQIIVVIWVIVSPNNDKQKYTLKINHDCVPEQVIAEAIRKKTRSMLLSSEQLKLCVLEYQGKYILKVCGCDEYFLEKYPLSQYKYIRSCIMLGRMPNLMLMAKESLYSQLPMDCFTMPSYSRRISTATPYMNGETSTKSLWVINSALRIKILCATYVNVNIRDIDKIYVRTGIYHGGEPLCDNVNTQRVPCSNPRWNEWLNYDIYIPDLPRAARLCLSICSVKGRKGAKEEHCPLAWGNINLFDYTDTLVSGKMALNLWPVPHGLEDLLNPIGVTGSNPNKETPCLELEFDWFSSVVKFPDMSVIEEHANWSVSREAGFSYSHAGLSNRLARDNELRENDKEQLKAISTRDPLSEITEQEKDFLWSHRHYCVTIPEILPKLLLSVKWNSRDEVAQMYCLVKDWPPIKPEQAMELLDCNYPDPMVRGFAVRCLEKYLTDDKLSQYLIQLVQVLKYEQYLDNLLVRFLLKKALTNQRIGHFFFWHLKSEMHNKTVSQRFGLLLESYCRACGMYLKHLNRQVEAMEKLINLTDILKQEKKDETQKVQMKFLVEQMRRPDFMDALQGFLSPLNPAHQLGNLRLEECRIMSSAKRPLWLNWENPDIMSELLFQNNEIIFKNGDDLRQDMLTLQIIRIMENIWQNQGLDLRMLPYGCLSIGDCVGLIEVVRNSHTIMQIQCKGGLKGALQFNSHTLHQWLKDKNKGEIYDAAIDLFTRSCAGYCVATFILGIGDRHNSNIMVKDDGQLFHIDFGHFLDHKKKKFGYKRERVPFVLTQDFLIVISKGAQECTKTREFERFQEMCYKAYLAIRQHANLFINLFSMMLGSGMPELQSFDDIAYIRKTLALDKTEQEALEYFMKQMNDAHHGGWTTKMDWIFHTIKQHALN
PI 3-kinase alpha, sequence (Q63787 whole entry partner): as the sequence (Q63787 whole entry partner) above

Compound `Cc1cc(-c2cncc(-c3cc(S(=O)(=O)NC[C@H]4C[C@@H](O)C4)ccc3C)n2)n(C)n1` [Example 13, Cis 3-[6-(2,5-Dimethyl-2H-pyrazol-3-yl)-pyrazin-2-yl]-N-(3-hydroxy-cyclobutylmethyl)-4-methyl-benzenesulfonamide] has an IC50 [1] of 0.847 µM.

Work on `Cc1ccc(S(=O)(=O)N[C@H]2CC[C@H](O)CC2)cc1-c1cncc(-c2csc(CN3CCOCC3)c2)n1` [Example 12, Trans N-(4-Hydroxy-cyclohexyl)-4-methyl-3-[6-(5-morpholin-4-ylmethyl-thiophen-3-yl)-pyrazin-2-yl]-benzenesulfonamide] yielded an IC50 [2] of 1.11 µM, an IC50 [1] of 0.83 µM and an IC50 [3] of 0.306 µM. For the same compound, the IC50 [4] was 1.14 µM.

In the case of `Cc1ccc(S(=O)(=O)NC2CC3(CC(O)C3)C2)cc1-c1cncc(-c2cn(C)nc2C)n1` (stereo not shown) [Example 6, 3-[6-(1,3-Dimethyl-1H-pyrazol-4-yl)-pyrazin-2-yl]-N-(6-hydroxy-spiro[3.3]hept-2-yl)-4-methyl-benzenesulfonamide], the IC50 [2] is reported as 1.05 µM, the IC50 [1] is reported as 0.374 µM and the IC50 [3] is reported as 0.515 µM. For the same compound, the IC50 [4] was 0.709 µM.

Work on `Cc1ccc(S(=O)(=O)NC[C@H]2C[C@@H](O)C2)cc1-c1cncc(-c2cn(C)nc2C)n1` [Example 7, Cis 3-[6-(1,3-Dimethyl-1H-pyrazol-4-yl)-pyrazin-2-yl]-N-(3-hydroxy-cyclobutylmethyl)-4-methyl-benzenesulfonamide] yielded an IC50 [1] of 0.212 µM.
